Measured values reported in ChEMBL document CHEMBL5465560, “Selectivity Literature for EUbOPEN Chemogenomic Library” (2024).
Changes are numbered by the printed parent chain.

Legend:
[1] = system: T1, Receptor-type tyrosine-protein kinase FLT3 (Homo sapiens), P36888 [D835Y]; test: (§1) Selectivity interaction (KinomeScan (DiscoverX)) EUB0000229b FLT3; conditions: at 1 µM
T1 sequence (whole entry): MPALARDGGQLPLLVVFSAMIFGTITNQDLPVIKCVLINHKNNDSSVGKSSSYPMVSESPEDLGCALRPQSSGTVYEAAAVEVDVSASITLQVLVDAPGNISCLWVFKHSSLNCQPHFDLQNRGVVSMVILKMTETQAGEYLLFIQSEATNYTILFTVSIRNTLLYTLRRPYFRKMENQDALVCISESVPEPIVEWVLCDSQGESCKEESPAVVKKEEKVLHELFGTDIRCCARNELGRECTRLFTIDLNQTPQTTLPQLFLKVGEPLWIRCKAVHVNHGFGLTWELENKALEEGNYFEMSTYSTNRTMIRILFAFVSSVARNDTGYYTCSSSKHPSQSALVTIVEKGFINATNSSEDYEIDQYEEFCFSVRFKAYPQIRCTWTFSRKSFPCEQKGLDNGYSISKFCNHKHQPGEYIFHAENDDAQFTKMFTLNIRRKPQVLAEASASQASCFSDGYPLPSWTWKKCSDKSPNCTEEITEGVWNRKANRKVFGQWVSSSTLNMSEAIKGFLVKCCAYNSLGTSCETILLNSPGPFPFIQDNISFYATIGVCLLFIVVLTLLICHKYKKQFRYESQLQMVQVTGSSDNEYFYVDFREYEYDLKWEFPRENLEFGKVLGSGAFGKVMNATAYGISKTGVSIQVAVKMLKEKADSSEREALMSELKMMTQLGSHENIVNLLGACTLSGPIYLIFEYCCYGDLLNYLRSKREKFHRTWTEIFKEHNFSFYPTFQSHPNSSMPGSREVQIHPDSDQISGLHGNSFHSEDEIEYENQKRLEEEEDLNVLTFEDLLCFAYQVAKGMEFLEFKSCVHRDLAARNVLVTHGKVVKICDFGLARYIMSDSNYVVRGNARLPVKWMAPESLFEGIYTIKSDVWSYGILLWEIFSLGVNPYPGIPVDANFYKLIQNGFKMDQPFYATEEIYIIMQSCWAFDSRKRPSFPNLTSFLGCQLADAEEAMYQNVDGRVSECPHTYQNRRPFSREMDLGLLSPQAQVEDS

[2] = system: Receptor-type tyrosine-protein kinase FLT3 (Homo sapiens), P36888 [UNDEFINED MUTATION]; test: as §1; conditions: at 1 µM
[3] = system: T2, Receptor-type tyrosine-protein kinase FLT3 (Homo sapiens), P36888 [K663Q]; test: as §1; conditions: at 1 µM
T2 sequence (whole entry): T1 sequence (whole entry) with K663Q, Y835D

[4] = system: T3, Receptor-type tyrosine-protein kinase FLT3 (Homo sapiens), P36888 [R834Q]; test: as §1; conditions: at 1 µM
T3 sequence (whole entry): T1 sequence (whole entry) with R834Q, Y835D

[5] = target: Receptor-type tyrosine-protein kinase FLT3 (Homo sapiens) (UniProt P36888); test: as §1; conditions: at 10 µM

COc1cc(N(C)c2ccnc3ccc(C(F)(F)F)cc23)cc(OC)c1OC
% binding [1]: 69% | % binding [2]: 54% | % binding [3]: 76% | % binding [4]: 100% | % binding [5]: 78%
